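Five concentrations, 48 hours, 96-well plates. TGI: total growth inhibition.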
Experiments:
Assay in all cases: NCI anticancer screen, dose series, 48 h
786-0 renal = tested on: 786-0 renal
A498 renal = tested on: A498 renal
A549 NSCLC = tested on: A549 NSCLC
ACHN renal = tested on: ACHN renal
BT-549 breast = tested on: BT-549 breast
CAKI-1 renal = tested on: CAKI-1 renal
COLO 205 colon = tested on: COLO 205 colon
DU-145 prostate = tested on: DU-145 prostate
EKVX NSCLC = tested on: EKVX NSCLC
HCC-2998 colon = tested on: HCC-2998 colon
HCT-116 colon = tested on: HCT-116 colon
HCT-15 colon = tested on: HCT-15 colon
HOP-62 NSCLC = tested on: HOP-62 NSCLC
HOP-92 NSCLC = tested on: HOP-92 NSCLC
HS 578T breast = tested on: HS 578T breast
HT29 colon = tested on: HT29 colon
IGROV1 ovarian = tested on: IGROV1 ovarian
K-562 leukemia = tested on: K-562 leukemia
KM12 colon = tested on: KM12 colon
LOX IMVI melanoma = tested on: LOX IMVI melanoma
M14 melanoma = tested on: M14 melanoma
MALME-3M melanoma = tested on: MALME-3M melanoma
MCF7 breast = tested on: MCF7 breast
MDA-MB-231 breast = tested on: MDA-MB-231 breast
MDA-MB-435 = tested on: MDA-MB-435
MDA-N = tested on: MDA-N
MOLT-4 leukemia = tested on: MOLT-4 leukemia
NCI-H226 lung = tested on: NCI-H226 lung
NCI-H23 lung = tested on: NCI-H23 lung
NCI-H460 lung = tested on: NCI-H460 lung
NCI-H522 lung = tested on: NCI-H522 lung
NCI/ADR-RES ovarian = tested on: NCI/ADR-RES ovarian
OVCAR-3 ovarian = tested on: OVCAR-3 ovarian
OVCAR-4 ovarian = tested on: OVCAR-4 ovarian
OVCAR-5 ovarian = tested on: OVCAR-5 ovarian
OVCAR-8 ovarian = tested on: OVCAR-8 ovarian
PC-3 prostate = tested on: PC-3 prostate
RPMI-8226 leukemia = tested on: RPMI-8226 leukemia
RXF 393 renal = tested on: RXF 393 renal
SF-268 CNS = tested on: SF-268 CNS
SF-295 CNS = tested on: SF-295 CNS
SF-539 CNS = tested on: SF-539 CNS
SK-MEL-2 melanoma = tested on: SK-MEL-2 melanoma
SK-MEL-28 melanoma = tested on: SK-MEL-28 melanoma
SK-MEL-5 melanoma = tested on: SK-MEL-5 melanoma
SK-OV-3 ovarian = tested on: SK-OV-3 ovarian
SN12C renal = tested on: SN12C renal
SNB-19 CNS = tested on: SNB-19 CNS
SNB-75 CNS = tested on: SNB-75 CNS
SR leukemia = tested on: SR leukemia
SW-620 colon = tested on: SW-620 colon
T-47D breast = tested on: T-47D breast
TK-10 renal = tested on: TK-10 renal
U251 CNS = tested on: U251 CNS
UACC-257 melanoma = tested on: UACC-257 melanoma
UACC-62 melanoma = tested on: UACC-62 melanoma
UO-31 renal = tested on: UO-31 renal
CCRF-CEM leukemia = tested on: CCRF-CEM leukemia
HL-60(TB) leukemia = tested on: HL-60(TB) leukemia

For Cc1ccc(C)c(/C(=N\N=C(N)N)C2CC2)c1, the TGI (786-0 renal) was > 100 µM, the TGI (A498 renal) was > 100 µM and the TGI (A549 NSCLC) was > 100 µM. For the same molecule, the TGI (ACHN renal) was > 100 µM, the TGI (BT-549 breast) was 95.3 µM and the TGI (CAKI-1 renal) was > 100 µM. The TGI (COLO 205 colon) was > 100 µM, the TGI (DU-145 prostate) was > 100 µM and the TGI (EKVX NSCLC) was > 100 µM. For the same molecule, the TGI (HCC-2998 colon) was 35.4 µM, the TGI (HCT-116 colon) was 82.7 µM and the TGI (HCT-15 colon) was > 100 µM. The TGI (HOP-62 NSCLC) was > 100 µM, the TGI (HOP-92 NSCLC) was > 100 µM and the TGI (HS 578T breast) was > 100 µM. The TGI (HT29 colon) was > 100 µM, the TGI (IGROV1 ovarian) was > 100 µM and the TGI (K-562 leukemia) was 69.6 µM. For the same molecule, the TGI (KM12 colon) was > 100 µM, the TGI (LOX IMVI melanoma) was > 100 µM and the TGI (M14 melanoma) was > 100 µM. For the same molecule, the TGI (MALME-3M melanoma) was > 100 µM, the TGI (MCF7 breast) was > 100 µM and the TGI (MDA-MB-231 breast) was > 100 µM. For the same molecule, the TGI (MDA-MB-435) was 63.9 µM, the TGI (MDA-N) was 59.8 µM and the TGI (MOLT-4 leukemia) was > 100 µM. The TGI (NCI-H226 lung) was > 100 µM, the TGI (NCI-H23 lung) was 66.7 µM and the TGI (NCI-H460 lung) was 47.9 µM. For the same molecule, the TGI (NCI-H522 lung) was > 100 µM, the TGI (NCI/ADR-RES ovarian) was > 100 µM and the TGI (OVCAR-3 ovarian) was > 100 µM. For the same molecule, the TGI (OVCAR-4 ovarian) was > 100 µM, the TGI (OVCAR-5 ovarian) was > 100 µM and the TGI (OVCAR-8 ovarian) was > 100 µM. For the same molecule, the TGI (PC-3 prostate) was > 100 µM, the TGI (RPMI-8226 leukemia) was > 100 µM and the TGI (RXF 393 renal) was > 100 µM. The TGI (SF-268 CNS) was > 100 µM, the TGI (SF-295 CNS) was > 100 µM and the TGI (SF-539 CNS) was 75 µM. For the same molecule, the TGI (SK-MEL-2 melanoma) was > 100 µM, the TGI (SK-MEL-28 melanoma) was > 100 µM and the TGI (SK-MEL-5 melanoma) was > 100 µM. For the same molecule, the TGI (SK-OV-3 ovarian) was > 100 µM, the TGI (SN12C renal) was > 100 µM and the TGI (SNB-19 CNS) was > 100 µM. The TGI (SNB-75 CNS) was > 100 µM, the TGI (SR leukemia) was > 100 µM and the TGI (SW-620 colon) was > 100 µM. For the same molecule, the TGI (T-47D breast) was > 100 µM, the TGI (TK-10 renal) was > 100 µM and the TGI (U251 CNS) was 36.2 µM. The TGI (UACC-257 melanoma) was > 100 µM, the TGI (UACC-62 melanoma) was > 100 µM and the TGI (UO-31 renal) was > 100 µM.

COC(=O)/C(C#N)=C1\NC(=O)CC(c2ccccc2)C1C#N (configuration not stated) was tested, and the TGI (786-0 renal) was > 100 µM, the TGI (A549 NSCLC) was > 100 µM and the TGI (ACHN renal) was > 100 µM. The TGI (BT-549 breast) was > 100 µM, the TGI (CAKI-1 renal) was > 100 µM and the TGI (CCRF-CEM leukemia) was > 100 µM. The TGI (COLO 205 colon) was > 100 µM, the TGI (DU-145 prostate) was > 100 µM and the TGI (EKVX NSCLC) was > 100 µM. The TGI (HCC-2998 colon) was > 100 µM, the TGI (HCT-116 colon) was > 100 µM and the TGI (HCT-15 colon) was > 100 µM. The TGI (HL-60(TB) leukemia) was > 100 µM, the TGI (HOP-62 NSCLC) was > 100 µM and the TGI (HOP-92 NSCLC) was > 100 µM. The TGI (HS 578T breast) was > 100 µM, the TGI (HT29 colon) was > 100 µM and the TGI (IGROV1 ovarian) was > 100 µM. For the same molecule, the TGI (K-562 leukemia) was > 100 µM, the TGI (KM12 colon) was > 100 µM and the TGI (LOX IMVI melanoma) was > 100 µM. For the same molecule, the TGI (M14 melanoma) was > 100 µM, the TGI (MALME-3M melanoma) was > 100 µM and the TGI (MCF7 breast) was > 100 µM. The TGI (MDA-MB-231 breast) was > 100 µM, the TGI (MDA-N) was > 100 µM and the TGI (MOLT-4 leukemia) was > 100 µM. For the same molecule, the TGI (NCI-H226 lung) was > 100 µM, the TGI (NCI-H460 lung) was > 100 µM and the TGI (NCI-H522 lung) was > 100 µM. The TGI (NCI/ADR-RES ovarian) was > 100 µM, the TGI (OVCAR-3 ovarian) was > 100 µM and the TGI (OVCAR-4 ovarian) was > 100 µM. For the same molecule, the TGI (OVCAR-5 ovarian) was > 100 µM, the TGI (OVCAR-8 ovarian) was > 100 µM and the TGI (PC-3 prostate) was > 100 µM. The TGI (RPMI-8226 leukemia) was > 100 µM, the TGI (RXF 393 renal) was > 100 µM and the TGI (SF-268 CNS) was > 100 µM. For the same molecule, the TGI (SF-295 CNS) was > 100 µM, the TGI (SF-539 CNS) was > 100 µM and the TGI (SK-MEL-2 melanoma) was > 100 µM. For the same molecule, the TGI (SK-MEL-28 melanoma) was > 100 µM, the TGI (SK-MEL-5 melanoma) was > 100 µM and the TGI (SK-OV-3 ovarian) was > 100 µM. For the same molecule, the TGI (SN12C renal) was > 100 µM, the TGI (SNB-19 CNS) was > 100 µM and the TGI (SNB-75 CNS) was > 100 µM. The TGI (SR leukemia) was > 100 µM, the TGI (SW-620 colon) was > 100 µM and the TGI (T-47D breast) was > 100 µM. For the same molecule, the TGI (TK-10 renal) was > 100 µM, the TGI (UACC-257 melanoma) was > 100 µM and the TGI (UACC-62 melanoma) was > 100 µM. The TGI (UO-31 renal) was > 100 µM.

Source: PubChem BioAssay (NCI)
